Counter-ions that a name gives are not always drawn.

One data set can be described thus: in vitro. The note with it: rat, gh3-tre-luc cells, AC50 (uM) modified / 1000.
In the case of `CCCCCC1CCC(=O)O1` (stereo not shown) [gamma-Nonanolactone], the CC50 at 24 h was over 90 µM.
With `COc1cc(/C=C/C(=O)O[C@H]2CC[C@]34C[C@]35CC[C@]3(C)[C@@H]([C@H](C)CCC=C(C)C)CC[C@@]3(C)[C@@H]5CC[C@H]4C2(C)C)ccc1O` [gamma-Oryzanol], the half-maximal cytotoxic concentration (CC50) at 24 h is over 50 µM.
As for `CC1=CCC(C(C)C)=CC1` [gamma-Terpinene], the half-maximal cytotoxic concentration (CC50) at 24 h was over 90 µM.
In turn, `N[C@@H](CS)C(=O)O` [l-Cysteine hydrochloride] came in with a 50% cytotoxic concentration (CC50) at 24 h of over 90 µM.
For `COc1cccc(C(=O)CCN[C@@H](C)[C@H](O)c2ccccc2)c1` [l-Oxyfedrine hydrochloride], half-maximal cytotoxicity (CC50 at 24 h) was put at 13.4 µM.
Turning to `C=C(C)[C@@H]1CC=C(C=O)CC1` [l-Perillaldehyde], the half-maximal cytotoxic concentration (CC50) at 24 h is over 90 µM.
With `NCCS(=O)(=O)O` [l-Taurine], the midpoint of cytotoxicity, the CC50 at 24 h, lay at 29.5 µM.
The same measure, in the same setting: the value for `N[C@@H](Cc1c[nH]c2ccccc12)C(=O)O` [l-Tryptophan] was over 90 µM.
`COC(=O)C1=C(C)NC(C)=C(C(=O)OC(C)(C)CN(C)CCC(c2ccccc2)c2ccccc2)C1c1cccc([N+](=O)[O-])c1` (stereo not shown) [lercanidipine hydrochloride] registered a cytotoxic concentration (CC50) at 24 h of 8.65 µM. This counts as single-digit micromolar.
Still for that read-out and setting: the value for `Cc1cccc(O)c1` [m-Cresol] was over 100 µM; that for `CC(=O)Oc1cccc(C)c1` [m-Cresyl acetate] was over 50 µM.
On the same count and under the same terms, the value for `CNC(=O)Oc1cccc(C(C)C)c1` [m-Cumenyl methylcarbamate] was over 90 µM; that for `Cc1cccc(C)c1` [m-Xylene] was over 90 µM; that for `O[C@H]1[C@H](O)[C@@H](O)[C@H](O)[C@@H](O)[C@H]1O` [myo-Inositol] was over 90 µM.
The same measure, in the same setting: with `CCCCCC` [n-Hexane] the figure was over 90 µM; with `CO[C@@H]1[C@H](OC(=O)NC(=O)CCl)CC[C@]2(CO2)[C@H]1[C@@]1(C)O[C@@H]1CC=C(C)C` [o-(Chloroacetylcarbamoyl)fumagillol], over 30 µM.
As to `Cc1ccccc1OCC1CO1` (stereo not shown) [o-Cresyl glycidyl ether], the CC50 at 24 h is over 90 µM.
The same measure, in the same setting: with `Cc1ccccc1S(N)(=O)=O` [o-Toluenesulfonamide] the figure was over 90 µM; with `Cc1ccccc1C` [o-Xylene], over 90 µM.
Same read-out and setting: with `O=C(O)C(c1ccc(Cl)cc1)c1ccc(Cl)cc1` [p,p'-DDA] the figure was over 90 µM; with `CCc1ccc(C(c2ccc(CC)cc2)C(Cl)Cl)cc1` [p,p'-Ethyl-DDD], 82.4 µM.
In turn, `O=Nc1ccc(NO)cc1` [p-Benzoquinone dioxime] registered a half-maximal cytotoxic concentration (CC50) at 24 h of over 100 µM.
In turn, `Brc1ccc(Oc2ccccc2)cc1` [p-Bromodiphenyl ether] came in with a 50% cytotoxic concentration (CC50) at 24 h of over 90 µM.
For the compound `Cc1ccc(O)cc1` [p-Cresol], the half-maximal cytotoxic concentration (CC50) at 24 h is over 100 µM.
In the case of `Cc1ccc(C(C)(C)O)cc1` [p-Cymen-8-ol], the CC50 at 24 h was over 90 µM.
Turning to `Cc1ccc(C(C)C)cc1` [p-Cymene], the CC50 at 24 h is over 90 µM.
In the case of `CC1CCC(C(C)(C)S)C(=O)C1` (stereo not shown) [p-Mentha-8-thiol-3-one], the CC50 at 24 h was over 90 µM.
On the same count and under the same terms, the value for `CC(=O)c1ccc(C)cc1` [p-Methylacetophenone] was over 90 µM; that for `CN(C)c1ccc(CCO)cc1` [p-N,N-Dimethylaminophenethanol] was over 90 µM.
Still for that read-out and setting: with `Cc1ccc(S(=O)(=O)N=C=O)cc1` [p-Toluenesulphonyl isocyanate] the figure was over 90 µM.
`Cc1ccc(NC(N)=O)cc1` [p-Tolylurea] yielded a CC50 at 24 h of over 90 µM.
In turn, `Cc1ccc(C)cc1` [p-Xylene] displayed a CC50 at 24 h of over 90 µM.
Turning to `CCC(C)OC(=O)c1ccc(O)cc1` (stereo not shown) [sec-Butylparaben], the CC50 at 24 h is over 90 µM.
In turn, `CCC(C)NC(N)=O` (stereo not shown) [sec-Butylurea] returned a CC50 at 24 h of over 90 µM.
`O=P(O)(O)OC[C@H](O)CO` [sn-Glycerol 3-phosphate bis(cyclohexylammonium)] yielded a CC50 at 24 h of over 50 µM.
`CC(C)(C)Cl` [t-Butylchloride]: the CC50 at 24 h was over 100 µM.
Compound `CC(C)[C@@H](Nc1ccc(C(F)(F)F)cc1Cl)C(=O)OC(C#N)c1cccc(Oc2ccccc2)c1` (stereo partly shown) [tau-Fluvalinate] returned a half-maximal cytotoxic concentration (CC50) at 24 h of over 90 µM.
On to `CCC(C)(C)OC` [tert-Amyl methyl ether], for which the CC50 at 24 h was over 90 µM.
`CC(=O)CC(=O)OC(C)(C)C` [tert-Butyl 3-oxobutanoate] had a CC50 at 24 h of over 90 µM.
With `CC(C)(C)OC(=O)c1ccc(O)cc1` [tert-Butyl 4-hydroxybenzoate], the CC50 at 24 h was over 90 µM.
In turn, `CC(=O)OC(C)(C)C` [tert-Butyl acetate] had a CC50 at 24 h of over 90 µM.
With `C=CC(=O)OC(C)(C)C` [tert-Butyl acrylate], the 50% cytotoxic concentration (CC50) at 24 h was over 90 µM.
Consider `CC(C)(C)OC=O` [tert-Butyl formate], for which the CC50 at 24 h was over 100 µM.
`CC(C)(C)OCC1CO1` (stereo not shown) [tert-Butyl glycidyl ether] showed a half-maximal cytotoxic concentration (CC50) at 24 h of over 90 µM.
In turn, `CC(C)(C)OC(=O)c1ccccc1C(=O)O` [tert-Butyl hydrogen phthalate] had a cytotoxic concentration (CC50) at 24 h of over 90 µM.
Compound `CC(C)(C)OO` [tert-Butyl hydroperoxide (70% Solution in Water)] returned a CC50 at 24 h of over 90 µM.
`CC(C)(C)c1ccc(OCC2CO2)cc1` (stereo not shown) [tert-Butyl phenyl glycidyl ether] came in with a CC50 at 24 h of over 90 µM.
Still for that read-out and setting: the value for `CC(C)(C)C(=O)c1ccccc1` [tert-Butyl phenyl ketone] was over 90 µM; that for `CC(C)(C)OC(=O)c1cccc(N)c1` [tert-Butyl-3-aminobenzoate] was over 90 µM; that for `C=CC(=O)NC(C)(C)C` [tert-Butylacrylamide] was over 90 µM.
The same measure, in the same setting: the value for `CC(C)(C)N` [tert-Butylamine] was over 90 µM.
Regarding `CC(C)(C)c1ccccc1` [tert-Butylbenzene], the half-maximal cytotoxic concentration (CC50) at 24 h was over 90 µM.
Take `CC(C)C(C)(C)C(C)(C)C(C)(C)S` [tert-Dodecanethiol]: the cytotoxic concentration (CC50) at 24 h is over 90 µM.
`CCCCCCC(C)(C)S` [tert-Nonanethiol] showed a CC50 at 24 h of over 90 µM.
`CC(=O)OC/C=C(\C)CC/C=C(\C)CCC=C(C)C` [trans,trans-Farnesyl acetate]: the half-maximal cytotoxic concentration (CC50) at 24 h is over 90 µM.
In the case of `CC/C=C\CC/C=C/CO` [trans-2,cis-6-Nonadien-1-ol], the 50% cytotoxic concentration (CC50) at 24 h was over 90 µM.
In the case of `CC/C=C\CC/C=C/C=O` [trans-2,cis-6-Nonadienal], the CC50 at 24 h is over 90 µM.
In the case of `C/C=C/c1ccc(OCC)c(O)c1` [trans-2-Ethoxy-5-(1-propenyl)phenol], the cytotoxic concentration (CC50) at 24 h was over 90 µM.
Regarding `COc1ccccc1/C=C/C=O` [trans-2-Methoxycinnamaldehyde], the 50% cytotoxic concentration (CC50) at 24 h was over 90 µM.
In turn, `O=C(O)/C=C(\CC(=O)O)C(=O)O` [trans-Aconitic acid] returned a CC50 at 24 h of over 50 µM.
The same measure, in the same setting: with `C(=C\c1ccccc1)/c1ccccc1` [trans-Stilbene] the figure was over 100 µM.

The same data set, now with this note: rat, gh3-tre-luc cells, AC50 (uM) modified / 1000, Tox21_110001=Tox21_111076; viability, 1 nM T3 present, 24 h.
Take `Clc1ccc(C(c2ccc(Cl)cc2)C(Cl)(Cl)Cl)cc1` [p,p'-DDT]: the CC50 at 24 h was 19.5 µM.

Staying with this data set, now noted: rat, gh3-tre-luc cells, AC50 (uM) modified / 1000, Tox21_110001=Tox21_201495; viability, 1 nM T3 present, 24 h.
`Clc1ccc(C(c2ccc(Cl)cc2)C(Cl)(Cl)Cl)cc1` [p,p'-DDT]: the midpoint of cytotoxicity, the CC50 at 24 h, lay at 44.8 µM.

Staying with this data set, now noted: rat, gh3-tre-luc cells, AC50 (uM) modified / 1000, Tox21_110001=Tox21_202305; viability, 1 nM T3 present, 24 h.
Consider `Cc1ccccc1O` [o-Cresol], for which the half-maximal cytotoxic concentration (CC50) at 24 h was over 90 µM.

Still in this data set, the particulars now being: rat, gh3-tre-luc cells, AC50 (uM) modified / 1000, Tox21_110001=Tox21_202864; viability, 1 nM T3 present, 24 h.
For the compound `CCCCCCCCCBr` [n-Nonyl bromide], the CC50 at 24 h is over 90 µM.

Staying with this data set, now noted: rat, gh3-tre-luc cells, AC50 (uM) modified / 1000, Tox21_110001=Tox21_202980; viability, 1 nM T3 present, 24 h.
As for `CC(C)(C)c1ccccc1OP(=O)(Oc1ccccc1)Oc1ccccc1` [tert-Butylphenyl diphenyl phosphate], the 50% cytotoxic concentration (CC50) at 24 h was over 90 µM.

The same data set, now with this note: rat, gh3-tre-luc cells, AC50 (uM) modified / 1000, Tox21_110001=Tox21_300067; viability, 1 nM T3 present, 24 h.
As to `Clc1ccc(C(c2ccc(Cl)cc2)C(Cl)(Cl)Cl)cc1` [p,p'-DDT], the 50% cytotoxic concentration (CC50) at 24 h is 28.7 µM.

Broadly, the CC50 is the concentration giving 50% cytotoxicity.

The record behind these values is PMC6792352, “Limited Chemical Structural Diversity Found to Modulate Thyroid Hormone Receptor in the Tox21 Chemical Library” (Environmental Health Perspectives, 2019).
